pIC50: −log10 of the molar value. “And” between values parts separate entries of the source, which are not always exact repeats. Equal values may be shown once.
Legend:
[1] = system: bovine microtubule-associated protein (MAP)-rich tubulin; assay type: biochemical; settings: 0.3 uM
In short: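 This in vitro polymerization assay used bovine tubulin rich in microtubule-associated proteins, prepared at 1.5 mg/ml in GPEM (PEM buffer containing 1 mM GTP) and cleared by a 12,000×g spin. Tubulin solution (100 μl/well) was dispensed onto duplicate 10 μl test samples. Control wells held 0.3% DMSO. A SpectraMax Plus reader recorded turbidity at 340 nm every minute over 60 min at 24° C.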

KB cells = experiment: cells; assay type: cell-based; settings: Homo sapiens, KB, 72 h, 3 days, SRB
Procedure: (§1) Cell Survival Assay: Standard Pharmacological Test Procedure. […] Compounds are incubated with cells for 3 days.

KB85 = experiment: cells; assay type: cell-based; settings: 72 h, 3 days, SRB
Procedure: as §1

KBV1 = experiment: cells; assay type: cell-based; settings: 3 days, SRB
Procedure: as §1

Colo205 = experiment: Cell survival assay (SRB), Colo205; assay type: cell-based; settings: Homo sapiens, COLO 205, 72 h, Colo205 cells, 3 days
Procedure: as §1

HCT-15 = experiment: Cell survival assay (SRB), HCT-15; assay type: cell-based; settings: Homo sapiens; HCT-15 cells
Procedure: as §1

LOX = experiment: Cell survival assay (SRB), LOX; assay type: cell-based, human; settings: Homo sapiens; LOX cells
Procedure: as §1

A375 = experiment: Cell survival assay (SRB), A375; assay type: cell-based; settings: Homo sapiens, A-375; A375 cells
Procedure: as §1

KM20 = experiment: Cell survival assay (SRB), KM20; assay type: cell-based; settings: KM20 cells
Procedure: as §1

NCl-H1299 = experiment: Cell survival assay (SRB), NCl-H1299; assay type: cell-based; settings: NCl-H1299 cells
Procedure: as §1

With `CN[C@H](C(=O)N[C@H](C(=O)N(C)[C@H](/C=C(\C)C=O)C(C)C)C(C)(C)C)C(C)(C)c1ccccc1` [Example 82, N,β,β-trimethyl-L-phenylalanyl-N^1-[(1S,2E)-1-isopropyl-3-methyl-4-oxo-2-butenyl]-N^1,3-dimethyl-L-valinamide] the “Tubulin Polym. % inhibition at 0.3 uM” value [1] was 51% and 47%, the pIC50 (KB cells) was 6.15 and the pIC50 (KB85) was 5.88. For the same compound, the pIC50 (KBV1) was < 5.52, the pIC50 (KBV1; Homo sapiens, KB-V1, 72 h) was 5.71 and the pIC50 (Colo205) was 8.29. It also gave a pIC50 (HCT-15) of 5.82, a pIC50 (LOX) of 6.20 and a pIC50 (A375) of 6.18. For the same compound, the pIC50 (KM20) was 8.34 and the pIC50 (NCl-H1299) was 5.80.

From patent US7390910B2, “Compounds for treating tumors” (priority 2003, dated 2008)
